Values of other authors in patent US20250176603A1, “Vegetable-Based Food Product” (L-CONE SP. Z O. O., priority 2023, published 2025).
Entries after “also recorded” stand apart in the source; their conditions may differ.

How the values were obtained:
[1] = tested on: diethylnitrosamine-induced hepatocarcinogenesis; details: rats
[2] = tested on: lipopolysaccharide (LPS)-activated BV2 microglia
[3] = in vivo
Ehrlich ascites tumor = details: mice
[4] = tested on: pancreatic cancer patients resistant to gemcitabine chemotherapy; details: 8 g/day in a divided dose for 11 months
[5] = tested on: prostate cancer patients undergoing radiotherapy
TPOAb antibody = details: 200 ug for 3 months
[6] = tested on: acetic acid-induced ulcerative colitis; details: oral administration
DSS-induced colitis = DSS-induced colitis model

C=CCC(=NOS(=O)(=O)O)S[C@@H]1O[C@H](CO)[C@@H](O)[C@H](O)[C@H]1O (stereo in doubt) [Sinigrin]
diethylnitrosamine-induced hepatocarcinogenesis [1]: inhibited

O=CC=Cc1ccccc1 [Cinnamaldehyde]
production and expression of NO, IL-1b, IL-6 and TNF-a [2]: decrease | tau protein aggregation (tau protein): potential in inhibiting

C[S+]([O-])CCCCN=C=S (centres unmarked) [Sulforaphane]
level of bioavailability [3]: 74%

C=CCN=C=S [allyl isothiocyanate]
Ehrlich ascites tumor growth (Ehrlich ascites tumor): inhibited | cytotoxic effect (lung cancer cells): cytotoxic effect | cytotoxic effect (bladder): cytotoxic effect

COc1cc(/C=C/C(=O)CC(=O)/C=C/c2ccc(O)c(OC)c2)ccc1O [curcumin]
chances of longer survival [4]: significantly increased; also recorded: increased significantly | radiation side effects and therapeutic efficacy [5]: alleviate the side effects of radiation and enhance its therapeutic efficacy; also recorded: mitigate radiation side effects and enhance therapeutic efficacy

O=C(/C=C/C=C/c1ccc2c(c1)OCO2)N1CCCCC1 [piperine]
cytotoxic effects (K-562 cells): strong cytotoxic effects

C[Se]CC[C@H](N)C(=O)O [selenomethionine]
TPOAb antibody levels (TPOAb antibody): significantly reduced

COc1cc(C2Oc3cc([C@H]4Oc5cc(O)cc(O)c5C(=O)[C@@H]4O)ccc3OC2CO)ccc1O (some centres unmarked) [silybin]
IL-6 and TNF-α activity [6]: significant reduction

O=[Se](=O)(O)O [sodium selenate]
TPOAb antibody levels (TPOAb antibody): significantly reduced

O=C1c2c(O)cc(O)cc2O[C@H](c2ccc(O)c(O)c2)[C@H]1O [taxifolin]
NF-κB activation (DSS-induced colitis): reduce
